Measurements: patent publication US20220313717A1, “METHODS OF TREATING CRYPTOCOCCUS INFECTIONS” (MATINAS BIOPHARMA NANOTECHNOLOGIES, INC., priority 2019, published 2022)

Experiments:
Cryptococcus spp. [1] = details: cited from earlier work
CYP3A4 = CYP3A4 (Homo sapiens, UniProt P08684); details: cited from earlier work
CYP2C9 = CYP2C9 (Homo sapiens, UniProt P11712); details: cited from earlier work
[2] = Participant subjective impressions of cAMB versus prior IV AMB (qualitative scale, visual analog); design: species or system human; details: recall of prior IV therapy (6/24)
Protocol: Trial endpoints included: 1) Proportion of daily dose received and tolerated without vomiting within 30 minutes; 2) Cumulative score of nausea, vomiting, diarrhea by Common Terminology Criteria AE (CTCAE) grade scoring criteria (U.S. Department of Health and Human Services NIoH, National Cancer Institute, 2017, Common Terminology Criteria for Adverse Events (CTCAE) v 5.0); 3) Incidence of adverse events (AEs) by National Institute of Allergy and Infectious Diseases (NIAID) Division of AIDS (DAIDS) toxicity scale (version 2017) for Grade 1-5 or serious AEs (SAE) (U.S. Department of Health and Human Services NIoH, National Institute of Allergy and Infectious Diseases, Division of AIDS, 2017, Division of AIDS (DAIDS) Table for Grading the Severity of Adult and Pediatric Adverse Events, Corrected Version 2.1.); 4) Participant subjective impression(s) of cAMB by visual analog and other scales. All clinical and laboratory AEs were followed up until resolution.
Statistical analyses were primarily descriptive. The median and interquartile ranges or the number and proportions were reported where appropriate. Area under the curve (AUC) calculations were made using a linear trapezoidal method with statistical comparison by ANOVA. […]
Using a qualitative scale, we assessed participant impressions of their cAMB experience versus their prior IV AMB experience in the Phase 1A cohort.

Cryptococcus spp. [3] = details: in vivo, cited from earlier work

CYP3A4, sequence (P08684 whole entry): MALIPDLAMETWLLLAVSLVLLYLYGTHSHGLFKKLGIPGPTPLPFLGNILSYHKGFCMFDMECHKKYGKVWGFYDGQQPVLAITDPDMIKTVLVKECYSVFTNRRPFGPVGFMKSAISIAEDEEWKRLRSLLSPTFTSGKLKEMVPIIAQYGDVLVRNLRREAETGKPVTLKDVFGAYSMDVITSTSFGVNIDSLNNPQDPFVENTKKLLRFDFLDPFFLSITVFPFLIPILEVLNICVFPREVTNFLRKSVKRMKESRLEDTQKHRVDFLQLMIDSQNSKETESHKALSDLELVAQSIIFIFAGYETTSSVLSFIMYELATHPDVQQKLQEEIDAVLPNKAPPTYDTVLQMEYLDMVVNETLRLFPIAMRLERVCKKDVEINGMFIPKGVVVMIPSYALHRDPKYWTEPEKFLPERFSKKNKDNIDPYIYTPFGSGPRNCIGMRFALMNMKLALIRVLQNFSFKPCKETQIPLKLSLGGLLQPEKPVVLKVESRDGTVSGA
CYP2C9, sequence (P11712 whole entry): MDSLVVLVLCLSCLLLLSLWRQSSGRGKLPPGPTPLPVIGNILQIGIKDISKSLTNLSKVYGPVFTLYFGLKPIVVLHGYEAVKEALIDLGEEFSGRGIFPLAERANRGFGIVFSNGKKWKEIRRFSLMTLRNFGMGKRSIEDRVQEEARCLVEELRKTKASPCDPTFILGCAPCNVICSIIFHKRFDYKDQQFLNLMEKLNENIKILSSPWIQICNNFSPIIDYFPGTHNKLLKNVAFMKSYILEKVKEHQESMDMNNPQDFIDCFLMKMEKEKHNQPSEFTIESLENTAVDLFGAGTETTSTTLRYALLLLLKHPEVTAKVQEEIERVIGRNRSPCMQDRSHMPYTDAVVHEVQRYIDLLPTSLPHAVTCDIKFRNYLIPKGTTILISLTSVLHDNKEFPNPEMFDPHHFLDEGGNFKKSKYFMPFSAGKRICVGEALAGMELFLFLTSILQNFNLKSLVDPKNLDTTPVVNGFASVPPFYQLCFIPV

For `Nc1ncccc1-c1cc(Cc2ccc(COc3ccccn3)cc2)no1` [E1210], the “in vitro activity against Cryptococcus spp.” value (Cryptococcus spp. [1]) is listed as “has in vitro activity against Cryptococcus spp”.
In the case of `OC(Cn1cncn1)(Cn1cncn1)c1ccc(F)cc1F` [Fluconazole, fluconazole], the CYP3A4 inhibition (CYP3A4) is given as “moderate CYP3A4 inhibitor” and the CYP2C9 inhibition (CYP2C9) is given as “potent CYP2C9 inhibitor”.
With `C[C@@H]1[C@H](O)[C@@H](C)/C=C/C=C/C=C/C=C/C=C/C=C/C=C/[C@H](O[C@@H]2O[C@H](C)[C@@H](O)[C@H](N)[C@@H]2O)C[C@@H]2O[C@](O)(C[C@@H](O)C[C@@H](O)[C@H](O)CC[C@@H](O)C[C@@H](O)CC(=O)O[C@H]1C)C[C@H](O)[C@H]2C(=O)O` [IV AMB, amphotericin B] the “participants who recalled severe nausea” value [2] was 25%.
In the case of `OC(Cn1cnnn1)(c1ccc(F)cc1F)C(F)(F)c1ccc(-c2ccc(OCC(F)(F)F)cc2)cn1` (stereo not drawn) [VT-1129], the “fungicidal activity in mouse models of Cryptococcus spp. infection” value (Cryptococcus spp. [3]) is listed as “fungicidal” and the CNS penetration (Cryptococcus spp. [3]; mouse) is listed as “good CNS penetration”.
